Columns and labels:
[1] = Isothermal fluorescence titration (IFT), LMWH; assay type: binding; settings: for affinity for LMWH: IFT, both COOH-terminal peptides compared
Procedure: (§1) To study the interaction between CXCL9(74-93) and GAGs, titration experiments were performed as described by Gerlza et al. ([46]) using TAMRA-labeled synthetic CXCL9(74-93), TAMRA-labeled synthetic CXCL9(74-103), HS (Iduron BN1, Manchester, UK), low molecular weight heparin (LMWH; Iduron BN5), and chondroitin sulfate (CS; Carbosynth, Compton, UK).

[2] = Isothermal fluorescence titration (IFT), HS; assay type: binding; settings: for affinity for HS: IFT, both COOH-terminal peptides compared
Procedure: as §1

[3] = Isothermal fluorescence titration (IFT), CS; assay type: binding; settings: for Kd: isothermal fluorescence titration, TAMRA-labeled peptide, read-out: affinity (KD) for CS
Procedure: as §1

[4] = test system: cellular GAGs on CHO cells; assay: Binding of biotinylated peptides to CHO cells (cellular GAGs), flow cytometry; assay type: cell-based, Chinese hamster; settings: for binding to CHO cells: NH2-terminally biotinylated peptide, streptavidin-allophycocyanin
Procedure: Chinese hamster ovary (CHO) cells were a gift from M. Parmentier (ULB, Brussels, Belgium) and were cultured in Ham’s F-12 medium (with L-glutamine; Lonza, Belgium) supplemented with 10% fetal calf serum (FCS) and 0.8% G418 (Geneticin®; Life Technologies), as described ([44]). To inhibit sulfation of cellular GAGs, CHO cells were cultured in the presence of 100 mM sodium chlorate (NaClO3) for 24 h as previously described ([42]).
Binding of biotinylated CXCL9(74-103) and CXCL9(74-93) to CHO cells was assessed by flow cytometry as recently described ([42]). Briefly, cells were detached with phosphate-buffered saline (PBS) with 0.02% ethylenediaminetetraacetic acid (EDTA) and incubated with NH2-terminally biotinylated peptides. Subsequently, cells were incubated with streptavidin-allophycocyanin (BD Biosciences, San Jose, CA, USA) and analyzed by flow cytometry (FACSCalibur, BD Biosciences). To confirm inhibition of sulfation of cellular GAGs, part of the cells were stained with a mouse monoclonal anti-human HS antibody (Immunosource, Schilde, Belgium) and a secondary phycoerythrin-labeled goat anti-mouse antibody (BD Biosciences). Finally, cells were analyzed by flow cytometry. Analogously, binding of 100 nM biotinylated CXCL8 in the presence or absence of CXCL9(74-103) or CXCL9(74-93) was compared on CHO cells.
Figure 2 CXCL9(74-93) interacts with cellular glycosaminoglycans (GAGs). The interaction of the COOH-terminal CXCL9 peptides with Chinese hamster ovary (CHO) cells was assessed by flow cytometric analysis. (A) CHO cells were treated with dilutions of NH2-terminally biotinylated CXCL9(74-103) and CXCL9(74-93), which were detected by streptavidin-allophycocyanin. (B) To ensure that the binding of CXCL9(74-93) was GAG-mediated, CHO cells were treated with sodium chlorate (NaClO3) to reduce the sulfation of GAGs. Binding of biotinylated CXCL9(74-93) to cells, treated or untreated with NaClO3, was detected by streptavidin-allophycocyanin. The mean (+SEM) fluorescence intensity of bound biotinylated CXCL9 peptides to CHO cells is indicated on the y-axis (n ≥ 4). A statistical comparison to evaluate the binding of biotinylated peptides on CHO cells [compared to the corresponding concentration of CXCL9(74-103) (A) or to the binding to cells not treated with NaClO3 (B)] was performed using the Mann–Whitney U-test (*p < 0.05; **p < 0.01).

[5] = test system: CXCL8(1-77) binding to heparin; assay: Competition with CXCL8 for binding to immobilized heparin (ELISA-like); design: species or system human; settings: heparin-coated plates, CXCL8(1-77) 0-300 nM, 2 h at 37°C; anti-CXCL8 detection, 450 nm; n ≥ 4; Figure 3A
Procedure: (§2) The ability of the COOH-terminal peptides of CXCL9 and CXCL4 to compete for GAG binding with the inflammatory chemokines CXCL8 and CXCL1 was evaluated on heparin-binding plates [BD Biosciences or produced by Jason Whittle (School of Engineering/Future Industries Institute, University of South Australia, Australia)] ([42], [47]). In brief, GAGs (heparin, HS, and CS; Iduron; 25 µg/ml) were coated overnight at room temperature. Dilutions of COOH-terminal CXCL9 or CXCL4 peptide combined with recombinant human CXCL8(1-77) or recombinant murine CXCL1(1-72) (Peprotech, Rocky Hill, NJ, USA) were added in duplicate and incubated for 2 h at 37°C. Subsequently, bound CXCL8 or CXCL1 was detected with biotinylated polyclonal rabbit anti-human CXCL8 or biotinylated polyclonal goat anti-mouse CXCL1 (Peprotech) and horse radish peroxidase-labeled streptavidin. Finally, the peroxidase activity was quantified at 450 nm.
(§3) Figure 3 CXCL9(74-93) competes with CXCL8 for binding to heparin, heparan sulfate (HS), and cellular glycosaminoglycans (GAGs). Competition between CXCL8 and COOH-terminal CXCL9 or CXCL4 peptides for binding to immobilized heparin (A) or HS (B) and to Chinese hamster ovary (CHO) cells (C) was performed. […] Bound CXCL8 was detected with biotinylated anti-human CXCL8 antibodies. (C) Binding of NH2-terminally biotinylated CXCL8(1-77) (300 nM) to CHO cells in the presence or absence of an excess CXCL9 peptide was detected by streptavidin-allophycocyanin and flow cytometry. The mean (± SEM) percentage inhibition of binding of CXCL8(1-77) to heparin, HS or cellular GAGs is indicated on the y-axis (n ≥ 4). Statistical comparison of the different competitors with CXCL9(74–103) was performed using the Mann–Whitney U-test (*p < 0.05).

[6] = test system: CXCL8(1-77) binding to heparan sulfate (HS); assay: Competition with CXCL8 for binding to immobilized HS (ELISA-like); design: species or system human; settings: CXCL8(1-77) 0-300 nM, n ≥ 4, Figure 3B
Procedure: as §2, §3

Substance	affinity for LMWH [1]	Kd ([1]; isothermal fluorescence titration, TAMRA-labeled peptide, read-out: affinity (KD value) for LMWH)	affinity for HS [2]	Kd ([2]; isothermal fluorescence titration, TAMRA-labeled peptide, biphasic binding isotherm, fit of only the initial high-affinity phase)	Kd [3]	binding to CHO cells after reduction of GAG sulfation ([4]; CHO cells treated with 100 mM NaClO3 (24 h) vs untreated, biotinylated peptide, Figure 2B)	affinity to cellular GAGs relative to CXCL9(74-103) ([4]; CHO cells, biotinylated peptides, n ≥ 4, Figure 2A)	binding to CHO cells ([4]; n ≥ 4, Figure 2A)	molar excess over CXCL8 giving 50% reduction of CXCL8 binding to heparin [5]	inhibition of CXCL8 binding on HS-coated plates [6]	relative affinity for CS ([3]; compared to CXCL9(74-93))
74KKKQKNGKKHQKKKVLKVRK93 [CXCL9(74-93), COOH-terminal peptide of CXCL9 lacking the 10 COOH-terminal amino acids of CXCL9(74-103)]	high and comparable affinity	63 ± 13 nM	high and comparable affinity	1 nM	296 ± 19 nM	significantly reduced	lower affinity to cellular GAGs	dose-dependent binding	10 fold molar excess	equally efficient in inhibiting CXCL8 binding	
74KKKQKNGKKHQKKKVLKVRKSQRSRQKKTT103 [CXCL9(74-103), COOH-terminal peptide of CXCL9]	high and comparable affinity		high and comparable affinity		68 ± 4.6 nM			dose-dependent binding	10 fold molar excess	equally efficient in inhibiting CXCL8 binding	about fourfold higher affinity for CS

Source: paper PMC5423902, “CXCL9-Derived Peptides Differentially Inhibit Neutrophil Migration In Vivo through Interference with Glycosaminoglycan Interactions” (Frontiers in Immunology, 2017)
